Measurements published in publication PMC11005823 (Frontiers in Microbiology, 2024).
Residue numbers refer to the chain shown, from its start. Where “and” joins values, the source holds several entries; their conditions need not be identical. Equal values may be shown once. Read-outs that look alike come from different tables or passages of the source.

Legend:
AbaBauA = biological target: T1, AbaBauA (Acinetobacter baumannii, UniProt Q76HJ9); details: AbaBauA sensor; NB = no binding; read-out: apparent KD
T1 sequence (Q76HJ9 23-725): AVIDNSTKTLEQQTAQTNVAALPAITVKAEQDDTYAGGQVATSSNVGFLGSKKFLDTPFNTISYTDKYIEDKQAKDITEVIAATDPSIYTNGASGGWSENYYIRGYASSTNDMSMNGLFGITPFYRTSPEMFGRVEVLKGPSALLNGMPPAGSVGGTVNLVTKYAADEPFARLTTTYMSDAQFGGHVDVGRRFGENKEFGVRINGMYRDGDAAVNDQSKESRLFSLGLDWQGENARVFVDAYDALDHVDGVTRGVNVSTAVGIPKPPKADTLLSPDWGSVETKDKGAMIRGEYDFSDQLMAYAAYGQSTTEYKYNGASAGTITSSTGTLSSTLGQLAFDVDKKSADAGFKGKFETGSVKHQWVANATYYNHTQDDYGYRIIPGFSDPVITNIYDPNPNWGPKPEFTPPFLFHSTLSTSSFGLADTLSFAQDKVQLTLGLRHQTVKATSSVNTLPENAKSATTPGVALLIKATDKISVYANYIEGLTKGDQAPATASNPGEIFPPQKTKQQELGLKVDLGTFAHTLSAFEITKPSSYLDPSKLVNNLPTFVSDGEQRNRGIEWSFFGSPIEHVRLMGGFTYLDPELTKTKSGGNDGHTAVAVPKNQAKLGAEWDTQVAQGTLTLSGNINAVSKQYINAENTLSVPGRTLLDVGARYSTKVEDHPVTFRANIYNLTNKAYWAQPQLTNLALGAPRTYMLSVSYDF

EcoFiu (Fiu_A694C-FM) = biological target: T2, EcoFiu (Fiu_A694C-FM) (Escherichia coli, UniProt P75780, A694C); test: biochemical; format: binding
T2 sequence (P75780 32-760 A694C): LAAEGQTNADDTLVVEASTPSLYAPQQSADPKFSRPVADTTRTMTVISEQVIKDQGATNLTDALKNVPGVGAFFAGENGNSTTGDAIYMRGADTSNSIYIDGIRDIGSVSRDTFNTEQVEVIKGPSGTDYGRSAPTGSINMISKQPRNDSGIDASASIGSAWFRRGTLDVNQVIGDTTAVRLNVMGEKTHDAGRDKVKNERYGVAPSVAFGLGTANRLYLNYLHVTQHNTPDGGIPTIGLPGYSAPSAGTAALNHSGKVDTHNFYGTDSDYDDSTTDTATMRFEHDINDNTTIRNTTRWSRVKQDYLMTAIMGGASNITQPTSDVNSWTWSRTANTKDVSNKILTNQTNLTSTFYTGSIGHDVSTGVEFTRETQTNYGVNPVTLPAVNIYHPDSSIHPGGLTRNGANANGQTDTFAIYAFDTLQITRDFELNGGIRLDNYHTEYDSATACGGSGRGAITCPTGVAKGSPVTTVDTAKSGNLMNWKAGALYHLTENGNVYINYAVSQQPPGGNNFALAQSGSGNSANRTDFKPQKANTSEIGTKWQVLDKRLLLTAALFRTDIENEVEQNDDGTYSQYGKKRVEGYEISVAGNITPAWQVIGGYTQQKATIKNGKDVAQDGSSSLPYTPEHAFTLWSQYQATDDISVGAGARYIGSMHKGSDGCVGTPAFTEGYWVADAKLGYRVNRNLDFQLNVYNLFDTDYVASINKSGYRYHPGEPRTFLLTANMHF

EcoCir = EcoCir (Escherichia coli, UniProt P17315); format: binding
AbaPirA = biological target: T3, AbaPirA (Acinetobacter baumannii, UniProt D0C8V9); details: read-out: apparent KD; AbaPirA sensor; NB = no binding
T3 sequence (D0C8V9 25-754): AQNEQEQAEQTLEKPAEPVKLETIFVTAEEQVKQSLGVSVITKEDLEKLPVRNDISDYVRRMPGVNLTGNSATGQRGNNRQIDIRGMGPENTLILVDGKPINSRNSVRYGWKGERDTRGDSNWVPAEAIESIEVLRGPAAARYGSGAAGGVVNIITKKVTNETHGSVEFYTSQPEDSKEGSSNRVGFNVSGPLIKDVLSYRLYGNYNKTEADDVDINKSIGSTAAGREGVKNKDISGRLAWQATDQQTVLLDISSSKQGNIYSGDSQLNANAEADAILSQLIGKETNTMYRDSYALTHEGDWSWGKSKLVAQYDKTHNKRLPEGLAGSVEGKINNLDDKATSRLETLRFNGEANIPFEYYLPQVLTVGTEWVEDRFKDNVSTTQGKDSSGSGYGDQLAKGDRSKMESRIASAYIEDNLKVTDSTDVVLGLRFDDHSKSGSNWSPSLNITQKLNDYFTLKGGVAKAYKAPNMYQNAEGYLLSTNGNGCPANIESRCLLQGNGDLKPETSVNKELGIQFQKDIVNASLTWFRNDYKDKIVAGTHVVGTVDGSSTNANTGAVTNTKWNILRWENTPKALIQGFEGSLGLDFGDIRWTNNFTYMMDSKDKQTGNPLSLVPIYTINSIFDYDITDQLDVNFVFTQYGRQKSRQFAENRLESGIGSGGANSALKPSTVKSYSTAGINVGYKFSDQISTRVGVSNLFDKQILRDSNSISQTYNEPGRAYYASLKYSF

AbaPiuA = biological target: T4, AbaPiuA (Acinetobacter baumannii, UniProt D0CAH3); details: read-out: apparent KD; AbaPiuA sensor; NB = no binding
T4 sequence (D0CAH3 29-743): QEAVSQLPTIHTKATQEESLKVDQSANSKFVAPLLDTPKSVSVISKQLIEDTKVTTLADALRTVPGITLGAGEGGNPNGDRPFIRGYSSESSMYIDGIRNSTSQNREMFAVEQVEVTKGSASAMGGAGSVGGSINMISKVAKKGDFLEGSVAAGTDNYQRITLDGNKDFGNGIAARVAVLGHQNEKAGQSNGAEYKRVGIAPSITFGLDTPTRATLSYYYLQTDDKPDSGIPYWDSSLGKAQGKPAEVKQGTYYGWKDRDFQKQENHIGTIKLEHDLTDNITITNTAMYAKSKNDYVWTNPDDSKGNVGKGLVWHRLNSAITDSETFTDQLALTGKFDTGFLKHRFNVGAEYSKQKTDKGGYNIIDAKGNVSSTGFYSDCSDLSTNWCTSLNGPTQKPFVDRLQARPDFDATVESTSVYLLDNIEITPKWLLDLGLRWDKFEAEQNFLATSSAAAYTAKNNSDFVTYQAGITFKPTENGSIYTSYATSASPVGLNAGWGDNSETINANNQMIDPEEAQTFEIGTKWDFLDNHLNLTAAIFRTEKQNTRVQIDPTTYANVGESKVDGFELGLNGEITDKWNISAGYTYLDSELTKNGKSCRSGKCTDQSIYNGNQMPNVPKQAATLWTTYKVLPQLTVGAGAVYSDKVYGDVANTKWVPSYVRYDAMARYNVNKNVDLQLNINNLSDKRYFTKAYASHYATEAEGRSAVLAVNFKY

Fiu N554C-FM = biological target: T5, Fiu N554C-FM (Escherichia coli, UniProt P75780, N554C); format: binding; details: Fiu Cys mutant N554C-FM (positive control); read-out: Affinity: apparent KD
T5 sequence (P75780 32-760 N554C): T2 sequence (P75780 32-760 A694C) with N523C, C663A

[1] = tested on: OKN359/pFiu Fiu^+, FepA^−, Cir-; details: summary in words; strains exclusively expressing Fiu
[2] = tested on: OKN359/pFepA Fiu^−, FepA^+, Cir-; details: summary in words
EcoFepA = format: binding, Escherichia coli; details: read-out: apparent KD
[3] = tested on: OKN359/pCir Fiu^−, FepA^−, Cir^+; details: summary in words
[4] = apparent KD, EcoFiu sensor (Fiu_A694C-FM; FeDHBA with Fiu_N554C-FM), NB = no binding

EcoCir, sequence (P17315 26-663): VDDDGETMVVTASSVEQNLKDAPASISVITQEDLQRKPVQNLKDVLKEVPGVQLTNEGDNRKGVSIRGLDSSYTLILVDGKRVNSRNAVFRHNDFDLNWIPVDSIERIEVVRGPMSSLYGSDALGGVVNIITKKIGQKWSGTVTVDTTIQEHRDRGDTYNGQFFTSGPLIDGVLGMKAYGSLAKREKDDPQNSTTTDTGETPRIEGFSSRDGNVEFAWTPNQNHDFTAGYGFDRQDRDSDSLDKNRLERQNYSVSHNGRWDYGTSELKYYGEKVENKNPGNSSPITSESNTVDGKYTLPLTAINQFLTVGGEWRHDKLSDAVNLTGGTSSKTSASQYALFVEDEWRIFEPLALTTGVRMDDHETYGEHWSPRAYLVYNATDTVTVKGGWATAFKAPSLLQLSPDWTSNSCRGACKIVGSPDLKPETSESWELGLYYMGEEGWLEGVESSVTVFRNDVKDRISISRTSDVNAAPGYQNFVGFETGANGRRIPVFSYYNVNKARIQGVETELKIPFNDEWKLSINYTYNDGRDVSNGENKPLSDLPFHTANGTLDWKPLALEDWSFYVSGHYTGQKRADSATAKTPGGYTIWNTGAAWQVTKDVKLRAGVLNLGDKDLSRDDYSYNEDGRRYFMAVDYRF

ferric acinetobactin [FeAgn]
Kd (AbaBauA): 2100 ± 400 nM

CC(C)(O/N=C(\C(=O)N[C@@H]1C(=O)N2C(C(=O)O)=C(C[N+]3(CCNC(=O)c4ccc(O)c(O)c4Cl)CCCC3)CS[C@H]12)c1csc(N)n1)C(=O)O.[Fe+3] [FeFDC]
Kd (EcoFiu (Fiu_A694C-FM); [4]): 500 nM | Kd (EcoFiu (Fiu_A694C-FM); read-out: apparent KD, EcoFiu sensor (Fiu_A694C-FM; FeDHBA with Fiu_N554C-FM), NB = no binding): 400 ± 500 nM | Kd (EcoCir; Cir): 60 nM | Kd (EcoCir; read-out: apparent KD, EcoCir sensor, value marked ^1): 63 ± 6 nM | Kd (AbaPirA): 6200 ± 2300 nM

O=C(N[C@@H](CO)C(=O)OC[C@H](NC(=O)c1cccc(O)c1[O-])C(=O)O)c1cccc([O-])c1[O-].[Fe+3] [FeEnt*, Fe(DHBS)2]
Kd (EcoFiu (Fiu_A694C-FM); [4]): 740 nM

O=C(O)c1cccc(O)c1O.O=C(O)c1cccc(O)c1O.O=C(O)c1cccc(O)c1O.[Fe+3] [FeDHBA]
fluorescence quenching at site A694C-FM (EcoFiu (Fiu_A694C-FM); Fiu_A694C-FM): did not observe significant quenching | Kd (EcoFiu (Fiu_A694C-FM); [4]): 700 ± 100 nM | Kd (AbaPiuA): 15000 ± 3000 nM | Kd (AbaPirA): 9400 ± 900 nM | Kd (Fiu N554C-FM): 700 nM | transport by Fiu [1]: did not utilize | transport by FepA [2]: transported

CC(C)(O/N=C(\C(=O)N[C@@H]1C(=O)N2C(C(=O)[O-])=C(C[N+]3(CCNC(=O)c4ccc([O-])c([O-])c4Cl)CCCC3)CS[C@H]12)c1csc(N)n1)C(=O)O.[Fe+3] [FeFDC]
susceptibility of cells expressing only FepA [2]: not susceptible

O=C(N[C@@H](CO)C(=O)O)c1cccc(O)c1O.O=C(N[C@@H](CO)C(=O)O)c1cccc(O)c1O.O=C(N[C@@H](CO)C(=O)O)c1cccc(O)c1O.[Fe+3] [FeDHBS]
Kd (EcoFepA): 1600 ± 300 nM | Kd (EcoFiu (Fiu_A694C-FM); [4]): 100 nM and ~100 nM | Kd (EcoFiu (Fiu_A694C-FM); apparent KD, EcoFiu sensor, value marked ^1): 90 ± 0.2 nM | Kd (EcoCir; read-out: apparent KD, EcoCir sensor, NB = no binding): 7200 ± 900 nM | Kd (AbaPirA): 161000 ± 40000 nM | transport by Fiu [1]: did not utilize | transport by Cir [3]: weakly
